Reference: patent EP0187057A1, “2-Phenyl-isopropyl-allophanate, preparation and pharmaceutical application” (priority 1984, dated 1986)
Values joined by “and” are separate entries in the source; they are usually repeats but may differ in a detail not shown here. Equal entries are not always repeated. Where two headings read alike, the source gives them in different places.

Key:
[1] = Spontaneous motor activity; type: in vivo, souris; conditions: mouse, in vivo, po; dose diminishing initial performance by 50 %; read-out: DA50 motricité
Excerpt: (§1) On a donc étudié les effets dépresseurs que peuvent exercer des doses croissantes de SCS 289 sur : • - la motricité spontanée de la souris; • - sa curiosité, quantifiée par la méthode de la planche à trous; • - son agilité, évaluée par l'épreuve de la traction de Boissier et Simon; • - sa force musculaire, mesurée par l'épreuve des poids.
(§2) Les essais ont été pratiqués sur des groupes de 10 souris dont les performances motrices ont été mesurées à deux reprises : avant et une heure après traitement par le SCS 289 administré, par voie digestive à des doses allant de 10 à 200 mg/kg, actives vis-à-vis des convulsions pentétrazoliques et des crises psychomotrices. A noter que l'épreuve de la planche à trous utilisée pour chiffrer la curiosité des animaux (décompte du nombre de visites des trous) n'est pratiquée qu'une seule fois, le comportement explorateur des animaux traités étant alors comparé à celui des témoins.
(§3) Les résultats obtenus dans chaque groupe ont permis de calculer la DA50 capable de diminuer de 50 X les performances motrices initiales ou de diminuer de 50% la curiosité des souris traitées par rapport à celle des témoins.
(§4) Les expérimentations comportementales précédemment décrites ont été appliquées à des animaux recevant SCS 35 et SCS 289 aux doses de 10 et 25 mg/kg.

[2] = system: motricité spontanée de la souris; assay: Spontaneous motor activity; type: in vivo
Excerpt: as §1, §2, §3, §4

crises psychomotrices = assay: Psychomotor seizures induced by low-frequency transcranial electrical stimulation; type: in vivo, souris; conditions: for Pourcentage de souris protégées une heure après traitement: groupes de 20 souris
Excerpt: (§5) Propriétés anticonvulsivantes : • On a effectué, pour déterminer ces propriétés anticonvulsivantes, des expérimentations sur le SCS 289 en procédant à des essais de protection : • - chez le lapin soumis à une transélectrification cranienne génératrice de crises épileptiformes de type "grand mal" ou recevant une infusion veineuse de pentétrazol provoquant l'apparition de myoclonies palpébrales; • - chez la souris recevant, par voie sous-cutanée des doses croissantes de pentétrazol entraînant convulsions et mort ou soumise à une transélectrification transcranienne à basse fréquence génératrice de crises psychomotrices.
On a également recherché si le SCS 289 était susceptible de protéger la souris contre le choc psychomoteur induit par une stimulation transcranienne à basse fréquence qui provoque, chez l'animal, un bref comportement de désorientation rappelant les attaques psychomotrices de l'homme.
Vis-à-vis des crises psychomotrices provoquées chez la souris par une stimulation électrique transcranienne à basse fréquence, le SCS 35 apparait plus actif que le SCS 289 : […]

souris = assay: Acute toxicity by the digestive route, lethality after one week of observation; type: in vivo; conditions: souris, voie digestive, méthode de Miller et Tainter; 10080 min
Protocol: (§6) Des doses croissantes de produit (SCS 289) ont été administrées, par voie digestive, sous forme de suspensions gommeuses, sous le volume de 0,50 ml/20 g de poids corporel chez la souris et 0,50 ml/100 g de poids corporel chez le rat (de 500 à 4000 mg/kg avec des intervalles de 500 mg/kg).
(§7) Les animaux ont été maintenus en observation pendant une semaine, tout d'abord dans le laboratoire (avec un chauffage d'appoint) jusqu'au réveil des animaux endormis, puis dans l'unité animale conditionnée et climatisée.
(§8) Le taux de mortalité relevé dans chaque lot de rats et de souris au terme de la semaine d'observation a été le suivant :
(§9) Les valeurs des DL50, calculées par la méthode de Miller et Tainter sont respectivement de : • - 2300 ± 102 m^g/k^g chez la souris; • - 2050 + 220 mg/kg chez le rat.

[3] = as above; type: in vivo, souris; conditions: mouse, in vivo, po; for mortality at 168 h: read-out: Pourcentage de létalité Souris
Protocol: as §6, §7, §8, §9

[4] = Traction test of Boissier and Simon (agility); type: in vivo, souris; conditions: mouse, in vivo, po; dose diminishing initial performance by 50 %; read-out: DA50 agilité
Excerpt: as §1, §2, §3, §4

agilité de la souris = assay: Traction test of Boissier and Simon (agility); type: in vivo
Excerpt: as §1, §2, §3, §4

crises pentétrazoliques = assay: Convulsant and lethal effects of subcutaneous pentetrazol (125 mg/kg); type: in vivo, souris
Excerpt: as §5
Pour déceler une synergie d'action antagoniste vis-à-vis des effets convulsivants et létaux du pentétrazol injecté par voie sous-cutanée chez la souris à la dose de 125 mg/kg, on a déterminé avec plus de précision la DE50 du SCS 289 et on a recherché si l'association avec le SCS 35 apportait un surcroit appréciable d'activité.
On n'a retenu comme significative que la protection à l'égard des effets létaux observés sur 24 heures.

[5] = Acute toxicity by the digestive route, lethality after one week of observation; conditions: in vivo, po, rat; for mortality at 168 h: read-out: Pourcentage de létalité Rats
Protocol: as §6, §7, §8, §9

[6] = 10 mg/kg voie digestive, one hour after treatment
[7] = index thérapeutique absolu, souris

For `CC(C)OC(=O)N(C(N)=O)c1ccccc1` [SCS 289, phényl-2 allophanate d'isopropyle], the ED50 at 1 h [1] was 120 mg/kg, the “Propriétés déficitaires motrices sur la motricité (pourcentage de diminution des scores)” value [2, 6] was 0% and the “Propriétés déficitaires motrices sur la motricité (pourcentage de diminution des scores)” value ([2]; 25 mg/kg) was 20%. The “Propriétés déficitaires motrices sur la motricité (pourcentage de diminution des scores)” value ([2]; 50 mg/kg) was 25%, the “Propriétés déficitaires motrices sur la motricité (pourcentage de diminution des scores)” value ([2]; 75 mg/kg) was 30% and the “Propriétés déficitaires motrices sur la motricité (pourcentage de diminution des scores)” value ([2]; 100 mg/kg) was 50%. For the same compound, the “Propriétés déficitaires motrices sur la motricité (pourcentage de diminution des scores)” value ([2]; 150 mg/kg) was 100%, the “Propriétés déficitaires motrices sur la motricité (pourcentage de diminution des scores)” value ([2]; 200 mg/kg) was 100% and the “Pourcentage de souris protégées une heure après traitement” value (crises psychomotrices; 5 mg/kg voie digestive) was 45%. The “Pourcentage de souris protégées une heure après traitement” value (crises psychomotrices; 10 mg/kg voie digestive) was 50%, the “Pourcentage de souris protégées une heure après traitement” value (crises psychomotrices; 25 mg/kg voie digestive) was 95% and the “Pourcentage de souris protégées une heure après traitement” value (crises psychomotrices; 50 mg/kg voie digestive) was 100%. For the same compound, the “Pourcentage de souris protégées une heure après traitement” value (crises psychomotrices; 2,5 mg/kg voie digestive) was 35%, the ED50 (crises psychomotrices; Mus musculus, po, souris, voie digestive, read-out: DE50 capable de protéger 50 % des animaux contre les crises psychomotrices) was 4.5 mg/kg and the “activité par rapport au valproate de sodium (comparaison des DE50)” value (crises psychomotrices; crises psychomotrices, souris) was 26 fois. For the same compound, the “activité par rapport à la phénacétamide (comparaison des DE50)” value (crises psychomotrices; crises psychomotrices, souris) was “trois fois plus actif”, the “DL50/DE50 / Crises psycho-motrices” value (crises psychomotrices; [7]) was 511 and the “DE50 psychodépressive / DE50 anticonvulsivante / Crises psycho-motrices” value (crises psychomotrices; index thérapeutique relatif, psychodépressive = mean of DE50 for agilité, force musculaire, motricité, curiosité) was 16. For the same compound, the “DE50 capable de protéger 50 % des animaux contre les crises psychomotrices” value (crises psychomotrices; souris, voie digestive) was 4,5 mg/kg and ~5,5 mg/kg, the DL50 (souris) was 2300 + 102 mg/kg and the mortality at 168 h ([3]; 500 mg/kg voie digestive) was 0%. The mortality at 168 h ([3]; 1000 mg/kg voie digestive) was 0%, the mortality at 168 h ([3]; 1500 mg/kg voie digestive) was 0% and the mortality at 168 h ([3]; 2000 mg/kg voie digestive) was 20%. The mortality at 168 h ([3]; 2500 mg/kg voie digestive) was 40%, the mortality at 168 h ([3]; 3000 mg/kg voie digestive) was 100% and the mortality at 168 h ([3]; 3500 mg/kg voie digestive) was 100%. For the same compound, the mortality at 168 h ([3]; 4000 mg/kg voie digestive) was 100%, the LD50 at 168 h ([3]; souris, voie digestive, méthode de Miller et Tainter, read-out: DL50) was 2300 ± 102 mg/kg and the ED50 at 1 h [4] was 42 mg/kg. For the same compound, the “Propriétés déficitaires motrices sur l'agilité (pourcentage de diminution des scores)” value (agilité de la souris; [6]) was 6,7%, the “Propriétés déficitaires motrices sur l'agilité (pourcentage de diminution des scores)” value (agilité de la souris; 25 mg/kg) was 20% and the “Propriétés déficitaires motrices sur l'agilité (pourcentage de diminution des scores)” value (agilité de la souris; 50 mg/kg) was 41,7%. The “Propriétés déficitaires motrices sur l'agilité (pourcentage de diminution des scores)” value (agilité de la souris; 75 mg/kg) was 77,3%, the “Propriétés déficitaires motrices sur l'agilité (pourcentage de diminution des scores)” value (agilité de la souris; 100 mg/kg) was 90% and the “Propriétés déficitaires motrices sur l'agilité (pourcentage de diminution des scores)” value (agilité de la souris; 150 mg/kg) was 100%. The “Propriétés déficitaires motrices sur l'agilité (pourcentage de diminution des scores)” value (agilité de la souris; 200 mg/kg) was 100%, the “% de protection vis-à-vis de la létalité pentétrazolique” value (crises pentétrazoliques; 10 mg/kg) was 20% and the “% de létalité en 24 h” value (crises pentétrazoliques; 10 mg/kg 1 h avant pentétrazol 125 mg/kg s.c., untreated 100) was 80%. The “% de protection vis-à-vis de la létalité pentétrazolique” value (crises pentétrazoliques; 20 mg/kg) was 70%, the “% de létalité en 24 h” value (crises pentétrazoliques; 20 mg/kg 1 h avant pentétrazol) was 30% and the “% de protection vis-à-vis de la létalité pentétrazolique” value (crises pentétrazoliques; 30 mg/kg) was 100%. The “% de létalité en 24 h” value (crises pentétrazoliques; 30 mg/kg 1 h avant pentétrazol) was 0%, the “% de protection vis-à-vis de la létalité pentétrazolique” value (crises pentétrazoliques; 40 mg/kg) was 100% and the “% de létalité en 24 h” value (crises pentétrazoliques; 40 mg/kg 1 h avant pentétrazol) was 0%. The “% de protection vis-à-vis de la létalité pentétrazolique” value (crises pentétrazoliques; 50 mg/kg) was 100%, the “% de létalité en 24 h” value (crises pentétrazoliques; 50 mg/kg 1 h avant pentétrazol) was 0% and the ED50 (crises pentétrazoliques; Mus musculus, sc, 24 h, souris, read-out: DE50 à l'égard des crises pentétrazoliques maximales et létales) was 15 mg/kg. For the same compound, the “DL50/DE50 /pentétrazol” value (crises pentétrazoliques; [7]) was 153, the LD50 at 168 h ([5]; voie digestive, méthode de Miller et Tainter, read-out: DL50) was 2050 mg/kg and the mortality at 168 h ([5]; 500 mg/kg voie digestive) was 0%. For the same compound, the mortality at 168 h ([5]; 1000 mg/kg voie digestive) was 15%, the mortality at 168 h ([5]; 1500 mg/kg voie digestive) was 30% and the mortality at 168 h ([5]; 2000 mg/kg voie digestive) was 55%. It also gave a mortality at 168 h ([5]; 2500 mg/kg voie digestive) of 60%, a mortality at 168 h ([5]; 3000 mg/kg voie digestive) of 65% and a mortality at 168 h ([5]; 3500 mg/kg voie digestive) of 80%. The mortality at 168 h ([5]; 4000 mg/kg voie digestive) was 100%.
